Results taken from ChEMBL document CHEMBL1145625, “QSAR study of mosquito repellents from terpenoid with a six-member-ring” (2008).

test system: Culex pipiens; assay: Mosquito repellent activity in white mouse assessed as ratio of number of biting mosquito in treated to untreated control at 1.5 hrs; type: functional

SMILES | Ratio
CC(=O)OCCC1=CCC2CC1C2(C)C (stereo not given) | 60.8
CCC(=O)OCCC1=CCC2CC1C2(C)C (stereo not given) | 64.4
CC1(C)C2CC=C(CCO)C1C2 (stereo not given) [Nopol] | 69
CCC(=O)OC1CC(C)CCC1C(C)C (stereo not given) | 40.5
CC1CCC(C(C)C)C(O)C1 (stereo not given) [MENTHOL] | 53
CC1(C)C2CC3OC3(C)C1C2 (stereo not given) | 37.8
C=C(C)C1CC=C(CCOC(=O)CC)CC1 (stereo not given) | 63.6
CCOCCC1=CCC2CC1C2(C)C (stereo not given) | 62.2
CCCOCCC1=CCC2CC1C2(C)C (stereo not given) | 72.5
CCCC(CCCC1C2CCC(C2)C1(C)C)OC(C)=O (stereo not given) | 51.7
CCC(CCC1C2CCC(C2)C1(C)C)C(C)OC(C)=O (stereo not given) | 51.5
CC1(C)C2CC=C(CCOC=O)C1C2 (stereo not given) | 56.1
CC(=O)OC1CC(C(C)(C)O)CC=C1C (stereo not given) | 81
CC(=O)OCCC1C2CCC(C2)C1(C)C (stereo not given) | 53
CC1=CCC(C(C)(C)O)CC1OC=O (stereo not given) | 90
CCC(CCCC1C2CCC(C2)C1(C)C)OC(C)=O (stereo not given) | 50.2
CC(=O)OC1CC(C)CCC1C(C)C (stereo not given) | 38.7
CCC(=O)OCCC1C2CCC(C2)C1(C)C (stereo not given) | 56.8
COCCC1=CCC2CC1C2(C)C (stereo not given) | 52.1
C=C(C)C1CC=C(CCOC(C)=O)CC1 (stereo not given) | 58.5
